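Values below derive from 48-hour exposures of cells grown in 96-well plates, with endpoints linearly interpolated between the two concentrations bracketing the appropriate inhibition level. GI50 marks 50% less growth.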 Active and inactive are the calls of the source. Rule as the data show it: active = GI50 up to about 1.1 µM and inactive = higher.
Columns and labels:
Assay in all cases: inhibition of tumour cell growth, NCI panel, 48 h
[1] = system: T47D
[2] = system: DU-145
[3] = system: COLO 205
[4] = system: NCI-H522
[5] = system: HCT-116
[6] = system: CCRF-CEM
[7] = system: SNB-19
[8] = system: HT-29
[9] = system: ACHN
[10] = system: RPMI-8226
[11] = system: A498
[12] = system: MDA-MB-435
[13] = system: KM12
[14] = system: MDA-N
[15] = system: SK-MEL-2
[16] = system: UO-31
[17] = system: MDA-MB-231
[18] = system: SF-268
[19] = system: HOP-62
[20] = system: SK-MEL-5
[21] = system: OVCAR-4
[22] = system: SK-MEL-28
[23] = system: SNB-75
[24] = system: SN12C
[25] = system: LOX IMVI
[26] = system: K562
[27] = system: SF-539
[28] = system: UACC-257
[29] = system: 786-0
[30] = system: SW-620
[31] = system: HCT-15
[32] = system: NCI-H23
[33] = system: NCI/ADR-RES
[34] = system: UACC-62
[35] = system: IGROV-1
[36] = system: OVCAR-3
[37] = system: OVCAR-8
[38] = system: HCC 2998
[39] = system: HL-60
[40] = system: TK-10
[41] = system: HOP-92
[42] = system: SK-OV-3
[43] = system: CAKI-1
[44] = system: MCF7
[45] = system: SR
[46] = system: PC-3
[47] = system: Hs-578T
[48] = system: U-251
[49] = system: SF-295
[50] = system: OVCAR-5
[51] = system: NCI-H226
[52] = system: MOLT-4
[53] = system: BT-549
[54] = system: M14
[55] = system: Malme-3M
[56] = system: EKVX
[57] = system: NCI-H460
[58] = system: A549
[59] = system: RXF 393

## O=C1/C(=C/c2ccc(O)cc2)CCCC1CN1CCCCC1 (configuration not stated)
[1]
  GI50: 2.32 µM (inactive)
[2]
  GI50: 7.24 µM (inactive)
[3]
  GI50: 2.16 µM (inactive)
[4]
  GI50: 1.25 µM (inactive)
[5]
  GI50: 1.79 µM (inactive)
[6]
  GI50: 2.57 µM (inactive)
[7]
  GI50: 17.6 µM (inactive)
[8]
  GI50: 2.62 µM (inactive)
[9]
  GI50: 1.73 µM (inactive)
[10]
  GI50: 1.32 µM (inactive)
[11]
  GI50: 6.84 µM (inactive)
[12]
  GI50: 7.28 µM (inactive)
[13]
  GI50: 1.64 µM (inactive)
[14]
  GI50: 3.47 µM (inactive)
[15]
  GI50: 11.2 µM (inactive)
[16]
  GI50: 2.51 µM (inactive)
[17]
  GI50: 2.27 µM (inactive)
[18]
  GI50: 3.44 µM (inactive)
[19]
  GI50: 15.7 µM (inactive)
[20]
  GI50: 6.01 µM (inactive)
[21]
  GI50: 12.9 µM (inactive)
[22]
  GI50: 5.43 µM (inactive)
[23]
  GI50: 8.63 µM (inactive)
[24]
  GI50: 2.29 µM (inactive)
[25]
  GI50: 1.56 µM (inactive)
[26]
  GI50: 1.42 µM (inactive)
[27]
  GI50: 3.94 µM (inactive)
[28]
  GI50: 2.52 µM (inactive)
[29]
  GI50: 1.02 µM (active)
[30]
  GI50: 1.88 µM (inactive)
[31]
  GI50: 1.32 µM
[32]
  GI50: 5.12 µM (inactive)
[33]
  GI50: 8.2 µM (inactive)
[34]
  GI50: 1.83 µM (inactive)
[35]
  GI50: 1.97 µM (inactive)
[36]
  GI50: 4.41 µM (inactive)
[37]
  GI50: 5.92 µM (inactive)
[38]
  GI50: 4.76 µM (inactive)
[39]
  GI50: 0.483 µM (active)
[40]
  GI50: 2.55 µM (inactive)
[41]
  GI50: 1.78 µM (inactive)
[42]
  GI50: 16.6 µM (inactive)
[43]
  GI50: 2.56 µM (inactive)
[44]
  GI50: 1.69 µM (inactive)
[45]
  GI50: 1.39 µM (inactive)
[46]
  GI50: 5.38 µM (inactive)
[47]
  GI50: 3.71 µM (inactive)
[48]
  GI50: 7.91 µM (inactive)
[49]
  GI50: 16.1 µM (inactive)
[50]
  GI50: 16.3 µM (inactive)
[51]
  GI50: 7.14 µM (inactive)
[52]
  GI50: 2.2 µM (inactive)
[53]
  GI50: 2.55 µM (inactive)
[54]
  GI50: 2.94 µM (inactive)
[55]
  GI50: 1.88 µM (inactive)
[56]
  GI50: 3.25 µM (inactive)
[57]
  GI50: 14.3 µM (inactive)
[58]
  GI50: 17.2 µM (inactive)
[59]
  GI50: 13.7 µM (inactive)

## O=C1CC(C(O)(C(F)(F)F)C(F)(F)Cl)CCC1C(O)(C(F)(F)F)C(F)(F)Cl (configuration not stated)
[1]
  GI50: > 10 µM (inactive)
[2]
  GI50: > 10 µM (inactive)
[3]
  GI50: 4.6 µM (inactive)
[4]
  GI50: 8.77 µM (inactive)
[5]
  GI50: 7.19 µM (inactive)
[6]
  GI50: > 10 µM (inactive)
[7]
  GI50: > 10 µM (inactive)
[8]
  GI50: 5.78 µM (inactive)
[9]
  GI50: > 10 µM (inactive)
[10]
  GI50: > 10 µM (inactive)
[11]
  GI50: 6.58 µM (inactive)
[12]
  GI50: > 10 µM (inactive)
[13]
  GI50: > 10 µM (inactive)
[14]
  GI50: > 10 µM (inactive)
[15]
  GI50: 3.25 µM (inactive)
[17]
  GI50: > 10 µM (inactive)
[18]
  GI50: > 10 µM (inactive)
[19]
  GI50: > 10 µM (inactive)
[20]
  GI50: > 10 µM (inactive)
[21]
  GI50: > 10 µM (inactive)
[22]
  GI50: > 10 µM (inactive)
[23]
  GI50: 8.71 µM (inactive)
[24]
  GI50: > 10 µM (inactive)
[25]
  GI50: > 10 µM (inactive)
[26]
  GI50: > 10 µM (inactive)
[27]
  GI50: 7.18 µM (inactive)
[28]
  GI50: 4.18 µM (inactive)
[29]
  GI50: > 10 µM (inactive)
[30]
  GI50: > 10 µM (inactive)
[31]
  GI50: > 10 µM
[32]
  GI50: 9.55 µM (inactive)
[33]
  GI50: > 10 µM (inactive)
[34]
  GI50: 7.55 µM (inactive)
[35]
  GI50: > 10 µM (inactive)
[36]
  GI50: > 10 µM (inactive)
[37]
  GI50: > 10 µM (inactive)
[38]
  GI50: > 10 µM (inactive)
[39]
  GI50: > 10 µM (inactive)
[40]
  GI50: > 10 µM (inactive)
[41]
  GI50: 1.26 µM (inactive)
[42]
  GI50: > 10 µM (inactive)
[43]
  GI50: > 10 µM (inactive)
[44]
  GI50: 8.71 µM (inactive)
[45]
  GI50: > 10 µM (inactive)
[46]
  GI50: 2.68 µM (inactive)
[47]
  GI50: > 10 µM (inactive)
[48]
  GI50: > 10 µM (inactive)
[49]
  GI50: 7.5 µM (inactive)
[50]
  GI50: > 10 µM (inactive)
[51]
  GI50: > 10 µM (inactive)
[52]
  GI50: > 10 µM (inactive)
[53]
  GI50: > 10 µM (inactive)
[54]
  GI50: > 10 µM (inactive)
[55]
  GI50: > 10 µM (inactive)
[56]
  GI50: > 10 µM (inactive)
[57]
  GI50: > 10 µM (inactive)
[58]
  GI50: > 10 µM (inactive)
[59]
  GI50: 3.49 µM (inactive)
